Data: PubChem BioAssay AID2346 (The Scripps Research Institute Molecular Screening Center, 2010)

Target: Sphingosine 1-phosphate receptor 4 (Homo sapiens) (UniProt O95977)
Experiment: potency of S1P4 blockers – cell-based, fluorescence, synthesized analogues, late-stage follow-up (AID 2346)
Settings: S1P4-expressing cells, antagonist fluorescence read-out

Sequence of Sphingosine 1-phosphate receptor 4 (Homo sapiens) (O95977 whole entry, looked up): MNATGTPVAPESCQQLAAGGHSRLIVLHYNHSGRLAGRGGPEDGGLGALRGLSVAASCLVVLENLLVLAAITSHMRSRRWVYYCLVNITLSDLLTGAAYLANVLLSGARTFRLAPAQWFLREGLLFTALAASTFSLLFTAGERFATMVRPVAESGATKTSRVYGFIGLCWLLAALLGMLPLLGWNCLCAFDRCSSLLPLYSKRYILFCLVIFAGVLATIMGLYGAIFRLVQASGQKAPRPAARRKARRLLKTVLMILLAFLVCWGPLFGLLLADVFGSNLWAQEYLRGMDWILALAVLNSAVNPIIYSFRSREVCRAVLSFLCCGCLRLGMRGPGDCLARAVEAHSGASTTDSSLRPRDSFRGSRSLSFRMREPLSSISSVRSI

Structure (SMILES)	IC50 [µM]
CC(C)c1cccc(C(C)C)c1NC(=O)c1ccc(-c2cc(Cl)ccc2Cl)o1	0.105
Cc1ccc2ccccc2c1NC(=O)c1ccc(-c2cc(Cl)ccc2Cl)o1	0.253
Cc1ccc(C)c(NC(=O)c2ccc(-c3cc(Cl)ccc3Cl)o2)c1	0.165
COc1cccc(OC)c1NC(=O)c1ccc(-c2cc(Cl)ccc2Cl)o1	0.417
Cc1ccc(S(C)(=O)=O)c(C)c1NC(=O)c1ccc(-c2cc(Cl)ccc2Cl)o1	0.302
CCc1cccc(CC)c1NC(=O)c1ccc(-c2cc(Cl)ccc2Cl)o1	0.089

Further lines, results first:

IC50 [µM]	Structure (SMILES)
0.286	Cc1cscc1-c1ccc(C(=O)Nc2c(C)cccc2C)o1
0.169	Cc1cccc(Cl)c1NC(=O)c1ccc(-c2cc(Cl)ccc2Cl)o1
0.163	COc1cccc(C)c1NC(=O)c1ccc(-c2cc(Cl)ccc2Cl)o1
0.308	Cc1cccc(C)c1NC(=O)c1ccc(-c2cc(F)ccc2F)o1
0.497	Cc1cccc(C)c1NC(=O)c1ccc(-c2cccc(Cl)c2)o1
